Measurements published in ChEMBL document CHEMBL1201862, “PubChem BioAssay data set” (2004).
Calls of active or inactive are those of the source.

How the values were obtained:
[1] = target: Voltage-dependent T-type calcium channel subunit alpha-1H (Homo sapiens, UniProt O95180); type: functional;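 further: channel activity triggered by adding a high calcium stimulation buffer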
[2] = M. tuberculosis H37Rv growth inhibitors, H37Rv strain (AID 1626); type: functional
[3] = target: T1, Calpain-2 catalytic subunit (Sus scrofa, UniProt P43367); test: m-calpain protease blockers, concentration series – biochemical, fluorogenic peptide substrate, dose response (AID 1420); type: functional
T1 sequence (P43367 whole entry): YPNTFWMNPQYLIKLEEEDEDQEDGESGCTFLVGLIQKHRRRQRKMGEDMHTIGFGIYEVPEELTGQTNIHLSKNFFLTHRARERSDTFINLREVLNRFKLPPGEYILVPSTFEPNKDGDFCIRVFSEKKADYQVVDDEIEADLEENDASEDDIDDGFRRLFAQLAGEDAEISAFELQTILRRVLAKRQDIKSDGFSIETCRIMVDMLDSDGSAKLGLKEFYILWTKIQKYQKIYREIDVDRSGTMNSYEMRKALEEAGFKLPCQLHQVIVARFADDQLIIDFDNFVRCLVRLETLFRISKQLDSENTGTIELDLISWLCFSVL

[4] = Luminescence Cell-Based Dose Response to Identify Activators of 5'UTR Stem-Loop Driven Prion Protein mRNA Translation in H4-C Neuroglioblastoma Cells. [Related pubchem assays: 1829 (Project Summary), 1814 (Primary HTS)]; type: functional
[5] = Luminescence Cell-Based Dose Confirmation HTS to Identify Activators of 5'UTR Stem-Loop Driven Alpha-Synuclein mRNA Translation in H4 Neuroglioblastoma Cells. [Related pubchem assays: 1829 (Project Summary), 1814 (Primary HTS)]; type: functional
[6] = Luminescence Cell-Based Dose Response HTS to Identify Activators of Luciferase Translation or Activity in H4 […] Cells. [Related pubchem assays: 1829 (Project Summary), 1814 (Primary HTS)]; type: functional
H4 = test: Luminescence Cell-Based Dose Response HTS to Identify Activators of 5'UTR Stem-Loop Driven Prion Protein mRNA Translation in H4 Neuroglioblastoma Cells. [Related pubchem assays: 1829 (Project Summary), 1814 (Primary HTS)]; type: functional; conditions: Homo sapiens
[7] = Luminescence Cell-Based Dose Response to Identify Activators of Luciferase Translation or Activity in H4-C Neuroglioblastoma Cells. [Related pubchem assays: 1829 (Project Summary), 1814 (Primary HTS)]; type: functional
[8] = Luminescence Cell-Based Dose Confirmation to Identify Activators of 5'UTR Stem-Loop Driven Alpha-Synuclein mRNA Translation in H4 Neuroglioblastoma Cells. [Related pubchem assays: 1829 (Project Summary), 1814 (Primary HTS)]; type: functional
[9] = target: T2, Tyrosine-protein phosphatase non-receptor type 7 (Homo sapiens, UniProt P35236); test: HePTP tyrosine phosphatase activity blockers – biochemical, absorbance, leukemia target, primary screen (AID 521); type: functional
T2 sequence (P35236 whole entry): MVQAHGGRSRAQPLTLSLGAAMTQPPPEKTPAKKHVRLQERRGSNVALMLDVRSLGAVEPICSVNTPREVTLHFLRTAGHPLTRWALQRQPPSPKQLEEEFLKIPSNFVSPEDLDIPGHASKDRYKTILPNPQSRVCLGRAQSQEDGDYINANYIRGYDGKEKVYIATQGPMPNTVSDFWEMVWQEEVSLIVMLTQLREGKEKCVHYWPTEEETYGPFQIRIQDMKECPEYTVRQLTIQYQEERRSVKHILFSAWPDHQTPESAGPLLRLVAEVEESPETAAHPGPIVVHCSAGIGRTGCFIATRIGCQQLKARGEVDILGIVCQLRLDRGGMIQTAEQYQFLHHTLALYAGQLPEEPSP

[10] = Trypanosoma cruzi growth suppression in host cells – NIH3T3 host cells, beta-gal luminescence, confirmation (AID 2044); type: functional, cell-based;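 further: intracellular parasites grown in NIH/3T3 mouse fibroblasts as host cells; luminescent beta-galactosidase reporter signal from transgenic T. cruzi replicating inside host cells; inhibitors lower the luminescence signal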
[11] = NIH3T3 cell viability loss – ATP luminescence, mouse fibroblasts, counter-screen, dose response (AID 2010); type: functional, cell-based;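 further: cells exposed to compound for about 90 hours before reading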
cells [12] = test: cells
Cytochrome P450 3A4 = Cytochrome P450 3A4 (Homo sapiens, UniProt P08684); conditions: Potency;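 further: confirmatory qHTS run detecting inhibitors and substrates of CYP3A4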
[13] = Vero E6 cell cytotoxicity, dose response, cytotoxicity control for non-replicating M. tuberculosis project, secondary assay (AID 492998); type: functional, VeroE6; conditions: Vero C1008
cells [14] = type: functional
[15] = growth inhibition of yeast DHODH-expressing 3D7 parasites – SYBR Green, dry powder samples, dose response (AID 1159570); type: functional, cell-based;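 further: parasite growth measured after 72 hours of compound exposure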
[16] = toxicity to human HepG2 hepatoma cells – cell-based, plate reader, dry powder samples, cytotoxicity control, dose response (AID 1159569); type: functional;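 further: inhibitor potency with signal falling toward the positive control level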
[17] = P. falciparum Dd2 growth inhibitors, dose response, SYBR Green, cherry-picked samples (AID 1159567); type: functional, cell-based
[18] = Dd2 malaria parasite growth inhibition potency – SYBR Green, dry powder samples, dose response (AID 1159566); type: functional, cell-based;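 further: potency for growth inhibition with lower SYBR green DNA signal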
[19] = toxicity to human hepatoma HepG2 cells – cell-based, cherry-picked samples, cytotoxicity control, dose response (AID 1159577); type: functional
[20] = growth inhibition of PfATP4-mutant resistant parasites – NITD609-resistant line, SYBR Green, dry powder, dose response (AID 1159571); type: functional, cell-based;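 further: parasites synchronized at ring stage by sorbitol before testing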

Sequence of Voltage-dependent T-type calcium channel subunit alpha-1H (O95180 whole entry): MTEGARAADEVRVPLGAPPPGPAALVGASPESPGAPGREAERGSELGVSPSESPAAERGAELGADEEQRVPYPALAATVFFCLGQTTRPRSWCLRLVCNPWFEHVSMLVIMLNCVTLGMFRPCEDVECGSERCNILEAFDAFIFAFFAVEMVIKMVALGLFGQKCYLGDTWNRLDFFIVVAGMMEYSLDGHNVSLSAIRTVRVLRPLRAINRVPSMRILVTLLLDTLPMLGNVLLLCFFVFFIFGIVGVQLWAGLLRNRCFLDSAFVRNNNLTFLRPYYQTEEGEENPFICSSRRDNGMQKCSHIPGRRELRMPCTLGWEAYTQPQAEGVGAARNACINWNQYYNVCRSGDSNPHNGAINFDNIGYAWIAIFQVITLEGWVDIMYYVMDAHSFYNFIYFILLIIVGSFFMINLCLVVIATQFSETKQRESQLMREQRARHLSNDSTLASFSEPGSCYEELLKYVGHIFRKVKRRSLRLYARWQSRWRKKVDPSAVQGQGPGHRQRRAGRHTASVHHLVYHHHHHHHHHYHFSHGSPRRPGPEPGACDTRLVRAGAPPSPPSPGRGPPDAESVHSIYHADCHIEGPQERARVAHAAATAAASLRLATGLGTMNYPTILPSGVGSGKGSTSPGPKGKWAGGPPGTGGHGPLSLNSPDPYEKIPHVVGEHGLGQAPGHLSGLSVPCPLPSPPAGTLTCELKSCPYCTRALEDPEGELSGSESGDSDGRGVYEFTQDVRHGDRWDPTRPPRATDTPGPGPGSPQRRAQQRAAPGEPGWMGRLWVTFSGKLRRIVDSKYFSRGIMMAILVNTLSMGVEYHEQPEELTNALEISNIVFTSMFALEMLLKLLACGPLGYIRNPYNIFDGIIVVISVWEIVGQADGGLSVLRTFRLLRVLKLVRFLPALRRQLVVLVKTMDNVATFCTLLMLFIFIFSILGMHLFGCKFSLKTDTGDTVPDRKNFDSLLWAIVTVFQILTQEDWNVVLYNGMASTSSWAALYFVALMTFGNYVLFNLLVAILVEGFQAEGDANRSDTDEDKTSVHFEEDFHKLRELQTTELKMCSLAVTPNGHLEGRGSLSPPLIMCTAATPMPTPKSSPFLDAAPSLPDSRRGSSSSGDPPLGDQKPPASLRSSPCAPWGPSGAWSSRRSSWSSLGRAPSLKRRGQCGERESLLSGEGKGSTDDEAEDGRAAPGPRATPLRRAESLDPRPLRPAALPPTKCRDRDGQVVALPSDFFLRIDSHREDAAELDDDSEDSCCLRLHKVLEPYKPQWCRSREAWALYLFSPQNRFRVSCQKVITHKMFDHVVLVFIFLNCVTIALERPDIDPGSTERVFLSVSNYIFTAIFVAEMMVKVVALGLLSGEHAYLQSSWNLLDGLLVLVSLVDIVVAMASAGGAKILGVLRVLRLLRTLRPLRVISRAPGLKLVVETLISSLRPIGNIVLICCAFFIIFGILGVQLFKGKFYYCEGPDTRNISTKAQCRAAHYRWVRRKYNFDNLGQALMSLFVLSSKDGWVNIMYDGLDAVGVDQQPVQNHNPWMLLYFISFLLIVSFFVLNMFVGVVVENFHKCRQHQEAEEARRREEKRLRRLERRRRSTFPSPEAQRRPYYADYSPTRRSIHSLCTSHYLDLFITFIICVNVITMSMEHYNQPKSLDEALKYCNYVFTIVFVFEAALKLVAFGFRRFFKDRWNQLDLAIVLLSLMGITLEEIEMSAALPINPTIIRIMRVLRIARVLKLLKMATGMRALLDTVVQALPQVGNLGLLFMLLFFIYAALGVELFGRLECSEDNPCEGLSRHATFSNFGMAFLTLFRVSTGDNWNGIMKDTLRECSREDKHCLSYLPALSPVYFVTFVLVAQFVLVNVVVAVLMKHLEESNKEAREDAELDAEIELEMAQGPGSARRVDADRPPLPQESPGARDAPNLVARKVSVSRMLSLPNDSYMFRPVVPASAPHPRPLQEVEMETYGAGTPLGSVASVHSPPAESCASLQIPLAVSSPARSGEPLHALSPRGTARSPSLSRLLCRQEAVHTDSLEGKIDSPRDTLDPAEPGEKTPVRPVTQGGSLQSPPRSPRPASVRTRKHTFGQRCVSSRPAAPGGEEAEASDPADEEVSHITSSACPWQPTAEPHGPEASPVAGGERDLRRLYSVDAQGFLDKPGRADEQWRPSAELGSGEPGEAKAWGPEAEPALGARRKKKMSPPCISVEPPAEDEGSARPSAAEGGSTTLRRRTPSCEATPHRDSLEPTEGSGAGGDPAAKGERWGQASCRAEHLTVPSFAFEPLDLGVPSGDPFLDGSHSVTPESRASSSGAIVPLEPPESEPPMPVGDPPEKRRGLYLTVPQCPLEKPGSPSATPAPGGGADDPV
Sequence of Cytochrome P450 3A4 (P08684 whole entry): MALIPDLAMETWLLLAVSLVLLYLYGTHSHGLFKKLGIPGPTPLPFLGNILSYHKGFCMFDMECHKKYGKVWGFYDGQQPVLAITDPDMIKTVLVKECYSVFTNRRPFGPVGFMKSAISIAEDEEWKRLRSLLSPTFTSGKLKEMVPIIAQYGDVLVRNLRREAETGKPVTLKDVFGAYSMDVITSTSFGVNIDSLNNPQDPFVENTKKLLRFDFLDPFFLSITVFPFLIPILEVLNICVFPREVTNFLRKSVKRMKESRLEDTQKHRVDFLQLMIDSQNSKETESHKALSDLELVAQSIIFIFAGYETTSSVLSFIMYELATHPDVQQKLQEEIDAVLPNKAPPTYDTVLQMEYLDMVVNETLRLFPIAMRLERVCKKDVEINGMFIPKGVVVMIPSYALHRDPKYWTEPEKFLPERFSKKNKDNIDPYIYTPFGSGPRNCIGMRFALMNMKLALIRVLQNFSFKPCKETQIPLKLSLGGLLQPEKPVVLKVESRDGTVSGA

COc1ccccc1NC(=O)N1CCc2[nH]c3ccc(Cl)cc3c2C1
EC50 [1]: 11.4 µM (active)

O=C(Nc1cccnc1)c1cc2cc(Br)ccc2oc1=O
IC50 [2]: > 100 µM (active)
IC50 [3]: 17.6 µM (not active)

CC(C)c1ccc(C(=O)NN2C(=O)C3CCCCC3C2=O)cc1 (configuration not stated)
EC50 [4]: 1.21 µM (active)
EC50 [5]: < 0.1 µM (active)
EC50 [6]: 0.118 µM (active)
EC50 (H4): 28.8 µM (active)
EC50 [7]: 1.48 µM (active)
EC50 [8]: 1.33 µM (active)

c1ccc(-n2ncc3c(N4CCC5(CC4)OCCO5)ncnc32)cc1
EC50 [4]: 1.1 µM (active)
EC50 [6]: < 0.1 µM (active)
EC50 (H4): > 120 µM (not active)
EC50 [7]: 0.364 µM (active)
EC50 [8]: 0.247 µM (active)

O=C(CCCn1c(=S)[nH]c2ccsc2c1=O)NCc1ccco1
IC50 [9]: > 100 µM (not active)

CCC(=O)Nc1ccc(NC(=O)c2ccco2)c(OC)c1
IC50 [9]: > 100 µM (not active)

COc1ccc(N2Cc3ccccc3C2)cc1Cl
IC50 [2]: > 100 µM (active)

O=C(CCSc1ccccc1)Nc1nnc(-c2ccccc2)o1
IC50 [2]: > 100 µM (active)

CC1CCc2c(sc(NC(=O)Cn3cnc([N+](=O)[O-])n3)c2C(N)=O)C1 (configuration not stated)
EC50 [10]: < 0.1 µM (active)
EC50 [11]: > 30 µM (not active)
EC50 (cells [12]): 0.102 µM (active)

Oc1ccc2c(c1)OCC1c3cc4c(cc3OC21)OCO4 (configuration not stated)
AC50 (Cytochrome P450 3A4): 39.8 µM (inconclusive)

COc1ccccc1NC(=O)/C(O)=C/C(=O)c1ccccc1
CC50 [13]: > 20 µM (active)
IC50 (cells [14]): 32 µM (active)

CCCc1cn(CC[C@H]2CC[C@@H](NS(=O)(=O)c3ccc(-c4ccccc4)cc3)[C@@H](CO)O2)nn1
AC50 [15]: 0.963 µM (active)
AC50 [16]: 47.4 µM (active)
AC50 [17]: 0.689 µM (active)
AC50 [18]: 0.914 µM (active)
AC50 [19]: > 39 µM (inactive)
AC50 [20]: 0.833 µM (active)

COc1ccc(C#Cc2ccc([C@@H]3[C@@H](CO)N4CCCCN(Cc5ccccc5F)C[C@H]34)cc2)cc1
AC50 [17]: 0.807 µM (active)
AC50 [19]: 7.91 µM (active)
